Laboratory results from patent publication US9695179B2, “Methods and compositions for inhibition of bromodomain-containing proteins” (CONVERGENE LLC, priority 2013, dated 2017).

Columns and labels:
BRD4-BD1-BD2 = BRD4-BD1-BD2 (Homo sapiens (Human), UniProt O60885); test: AlphaScreening assay, recombinant BRD4-BD1-BD2 and BET Ligand; type: binding; settings: 2.5 nM BRD4-BD1-BD2, BET Ligand
Experimental: Assays were performed by AlphaScreening technology using a recombinant BRD4-BD1-BD2 and BET Ligand. The AlphaScreening signal from the assay was correlated with the amount of BET Ligand binding to the bromodomain. The compounds were diluted in 50% DMSO and 1 μl of the dilution was added to a 10 μl reaction so that the final concentration of DMSO is 5% in all of reactions. All reactions were conducted at room temperature. The 9 μl reaction mixture in BRD Assay Buffer contains 2.5 nM BRD4-BD1-BD2 and the indicated amount of the inhibitor, and the reaction mixture were incubated for 30 min followed by additional 30 min incubation after the addition of 1 μl of BET Ligand (Table 2.3.1). For the negative control (blank), 1 μl of the assay buffer was added instead of the BET Ligand. After the 30 min incubation with the BET Ligand, 20 μl of BRD Detection buffer containing 10 μg/ml Glutathione acceptor beads and 10 μg/ml Streptavidin Donor beads was added and the final 30 μl mixture was incubated for 50 min in a dark room.
AlphaScreening signal was measured using EnSpire Alpha 2390 Multilabel reader (Perkin Elmer). Binding experiments were performed in duplicate at each concentration. The AlphaScreening data were analyzed using the computer software, Graphpad Prism. In the absence of the compound, the AlphaScreening signal (At) in each data set was defined as 100% activity. In the absence of the BET Ligand, the AlphaScreening signal (Ab) in each data set was defined as 0% activity. The percent activity in the presence of each compound was calculated according to the following equation: % activity=[(A−Ab)/(At−Ab)]×100, where A=the AlphaScreening signal in the presence of the compound, Ab=the AlphaScreening signal in the absence of the BET Ligand, and At=the AlphaScreening signal in the absence of the compound. The percent inhibition was calculated for certain compounds according to the following equation: % inhibition=100−% activity.

human BRD4 protein = human BRD4 protein (Homo sapiens (Human), UniProt O60885); test: AlphaScreen assay, BRD4 (bromodomain 1 and 2) with histone H4 peptide; type: binding; settings: for IC50: 25 nM BRD4, histone H4 peptide, 8 concentrations (10 nM-10 μM), read-out: BRD4-BD1-BD2 IC50; for BRD4-BD1-BD2 % Inhibition: test compounds assayed at 10 μM or 31.6 μM for screening
Experimental: The interactions between test compounds and BRD4 protein containing both bromodomain 1 and bromodomain 2 were measured with human BRD4 protein with N-terminal His tag (BPS Bioscience, San Diego, Calif.) using AlphaScreen® assay at room temperature. A 9 μl reaction mixture in BRD Assay Buffer (BPS Bioscience) containing 25 nM BRD4 and test compounds at various concentrations were incubated for 30 minutes followed by additional 30-minute incubation with 1 μl of 20 μM histone H4 peptide (residue 1-21) in the presence of 5% DMSO. Test compounds (see Table 4) were assayed at 10 μM or 31.6 μM for screening purpose, while 8 different concentrations (10 nM-10 μM) were used for IC50 measurements. After the incubation, 20 μl of BRD Detection Buffer (BPS Bioscience) containing 10 μg/ml Glutathione Acceptor beads and 10 μg/ml Streptavidin Donor beads (PerkinElmer, Waltham, Mass.) was added and the mixture was incubated for 50 minutes in darkroom. Binding measurements were taken in duplicate at each concentration using EnSpire® Alpha Multimode Plate Reader Model 2390 (PerkinElmer). The AlphaScreen data were analyzed using Graphpad Prism (La Jolla, Calif.). In the absence of the compound, the AlphaScreen signal (At) in each data set was defined as 100% activity. In the absence of the histone H4 peptide ligand, the AlphaScreen signal (Ab) in each data set was defined as 0% activity. The percent activity in the presence of each compound was calculated according to the following equation: % activity=[(A−Ab)/(At−Ab)]×100, where A=the AlphaScreen signal in the presence of compound; Ab=the AlphaScreen signal in the absence of the histone peptide ligand; and At=the AlphaScreen signal in the absence of the compound. The percent inhibition was calculated according to the following equation: % inhibition=100−% activity.

[1] = tested on: MV4-11 acute myeloid leukemia cells; test: In vitro cell viability (AlamarBlue), MV4-11; type: cell-based; settings: Homo sapiens, MV4-11 cells, 72-hour incubation, read-out: In Vitro Cell Viability (IC50) MV4-11 Cells (AML)
Experimental: MV4-11 acute myeloid leukemia cells (American Type Culture Collection, Manassas, Va.) were added to 96-well clear bottom assay plates containing RPMI-1640 medium supplemented with 10% fetal bovine serum (FBS) at approximately 30,000 cells/well and incubated for 24 hours at 37° C. with 5% CO2 and 95% humidity. Control wells containing no cells were included to measure background fluorescence signal. Test compounds were dissolved at […] and diluted two-fold in DMSO to produce a working stock of compound solutions. Aliquots of the working stock solutions were subsequently diluted 100-fold in basal RPMI-1640 medium which was then further diluted 10-fold to the assay plate containing the cells to provide 10 test concentrations ranging from 0.04 μM-20 μM. Following a 72-hour incubation period, viability of the cells was determined by the AlamarBlue® assay (Life Technologies, Carlsbad, Calif.) following the manufacturer's protocol. Prior to generation of dose response curves, the data were background subtracted using the no cell control values (mean+/−standard deviation) and fluorescence values versus Log10 concentration of test compounds were plotted using GraphPad Prism. The resulting sigmoidal curve was then fit to the graph and IC50 values were calculated using a 4 parameter (4PL) algorithm using the following equation: 4(PL)F(x)=(A−D)/(1+(x/c)^B+D, where A=lower asymptote (baseline response), D=upper asymptote (maximum response), C=drug concentration that provokes a response halfway between A and D, B=slope of the curve. The results for selected compounds are set forth in Table 7.

inhibition at 10 µM (BRD4-BD1-BD2) | IC50 (human BRD4 protein) | BRD4-BD1-BD2 % Inhibition (human BRD4 protein) | IC50 [1] | Structure (SMILES)
65% | – | – | – | CCN(CC)C(=O)Sc1c(-c2ccccc2)c2cc(OC)c(-c3c(C)noc3C)cc2[nH]c1=O
– | 11200 nM | 62% | – | Cc1noc(C)c1-c1ccc2[nH]c(=O)c(C(=O)/C=C/c3ccccc3)c(-c3cccnc3)c2c1 [Compound 90]
– | – | – | 5450 nM | CCN(CC)CCCNC(=O)C1CCCN(c2c(-c3ccccc3)c3cc(Cl)ccc3[nH]c2=O)C1 (stereo not shown) [Compound 127]
– | 26800 nM | 65% | – | CCN(CC)C(=S)Sc1c(-c2ccccc2)c2cc(Cl)ccc2[nH]c1=O [Compound 122]
50% | – | – | – | C/C(=C\C(=O)c1c(-c2ccccc2)c2cc(Cl)ccc2[nH]c1=O)c1c(F)cccc1Cl
99% | – | – | – | COc1ccc(Cn2c(=O)c(-c3coc(C)n3)c(OS(=O)(=O)c3ccc(Cl)cc3)c3cc(Cl)ccc32)cc1 [drawing 655]
– | 49 nM | >90% | – | O=c1[nH]c2ccc(Br)cc2c(-c2ccccc2)c1-c1cc(-c2ccccc2)[nH]c(=S)n1 [Compound 144]
– | 17300 nM | 50% | – | O=c1[nH]c2cc(Cl)ccc2c(-c2ccccc2)c1Sc1nc2ccccc2s1 [Compound 124]
– | 16300 nM | 64% | – | CNC(=S)N1N=C(c2c(-c3ccccc3)c3cc(Cl)ccc3[nH]c2=O)CC1c1ccccc1 (stereo not shown) [Compound 128]
– | – | – | 5520 nM | O=C(/C=C/c1ccc2c(c1)OCCO2)c1c(-c2ccccc2)c2cc(Br)ccc2[nH]c1=O [Compound 9, 6-bromo-3-(3-(2,3-dihydrobenzo[b][1,4]dioxin-6-yl)acryloyl)-4-phenylquinolin-2(1H)-one]
98% | – | – | – | COc1ccc(Cn2c(=O)c(-c3coc(C)n3)c(OS(=O)(=O)c3ccccc3)c3cc(Cl)ccc32)cc1 [drawing 651]
99% | – | – | – | COc1ccc(Cn2c(=O)c(-c3coc(C)n3)c(OS(=O)(=O)c3ccc(-c4ccccc4)cc3)c3cc(Cl)ccc32)cc1 [drawing 657]
– | 1440 nM | 72% | – | O=c1[nH]c2ccc(Cl)cc2c(-c2ccccc2)c1-c1cc(-c2ccccc2)[nH]c(=S)n1 [Compound 145]
– | – | – | 1800 nM | Cc1nc(-c2c(N3CCCC3)c3cc(Cl)ccc3[nH]c2=O)co1 [Compound 22]
– | – | – | 2300 nM | O=C(/C=C/c1cccs1)c1c(-c2ccccc2)c2cc(Cl)ccc2[nH]c1=O [Compound 7, 6-chloro-4-phenyl-3-(3-(thiophen-2-yl)acryloyl)quinolin-2(1H)-one]
99% | – | – | – | COc1ccc(Cn2c(=O)c(-c3coc(C)n3)c(OS(=O)(=O)c3ccc(F)cc3)c3cc(Cl)ccc32)cc1 [drawing 654]
– | 372 nM | 98% | – | COc1ccc(Cn2c(=O)c(-c3coc(C)n3)c(OS(=O)(=O)c3ccccc3)c3cc(Cl)ccc32)cc1 [Compound 84]
99% | – | – | – | COc1ccc(Cn2c(=O)c(-c3coc(C)n3)c(OS(=O)(=O)c3ccc(C)cc3)c3cc(Cl)ccc32)cc1 [drawing 653]
51% | – | – | – | Cc1noc(C)c1-c1ccc2[nH]c(=O)cc(O)c2c1

inhibition at 10 µM (BRD4-BD1-BD2) | IC50 (human BRD4 protein) | BRD4-BD1-BD2 % Inhibition (human BRD4 protein) | IC50 [1] | Structure (SMILES)
– | 139 nM | 99% | – | COc1ccc(Cn2c(=O)c(-c3coc(C)n3)c(OS(=O)(=O)c3ccc4ccccc4c3)c3cc(Cl)ccc32)cc1 [Compound 87]
– | 23600 nM | 50% | – | CSc1nsc(Sc2c(-c3ccccc3)c3ccc(Cl)cc3[nH]c2=O)n1 [Compound 126]
– | 7300 nM | 68% | – | O=c1[nH]c2ccc(Cl)cc2c(-c2ccccc2)c1SC(=S)N1CCOCC1 [Compound 121]
– | – | – | 10300 nM | CN(C)c1ccc(/C=C/C(=O)c2c(-c3ccccc3)c3cc(Cl)ccc3[nH]c2=O)cc1 [Compound 8, 6-chloro-3-(3-(4-(dimethylamino)phenyl)acryloyl)-4-phenylquinolin-2(1H)-one]
– | 5800 nM | 59% | – | C=CCn1c(Sc2c(-c3ccccc3)c3cc(Cl)ccc3[nH]c2=O)nnc1-c1cccs1 [Compound 97]
– | 2430 nM | 87% | 110 nM | O=C(/C=C/c1ccccc1)c1c(-c2ccccc2)c2cc(Cl)ccc2[nH]c1=O [Compound 1]
– | 3700 nM | 92% | – | Cc1ccc(-c2nnc(Sc3c(-c4ccccc4)c4cc(Cl)ccc4[nH]c3=O)n2N)cc1 [Compound 132]
– | 6700 nM | 64% | – | COc1ccc(-c2cc(=O)[nH]c(Sc3c(-c4ccccc4)c4cc(Cl)ccc4[nH]c3=O)n2)cc1 [Compound 98]
– | – | – | 3000 nM | O=C(/C=C/c1ccccc1)c1c(-c2ccccc2)c2cc(Br)ccc2[nH]c1=O [Compound 81]
85% | – | – | – | Cc1noc(C)c1-c1ccc2c(-c3ccccc3)cc(=O)[nH]c2c1
– | 876 nM | 99% | – | COc1ccc(Cn2c(=O)c(-c3coc(C)n3)c(OS(=O)(=O)c3ccc(F)cc3)c3cc(Cl)ccc32)cc1 [Compound 85]
– | 864 nM | 98% | – | COc1ccc(Cn2c(=O)c(-c3coc(C)n3)c(OS(=O)(=O)c3cccc4cccnc34)c3cc(Cl)ccc32)cc1 [Compound 88]
– | 586 nM | 99% | – | COc1ccc(Cn2c(=O)c(-c3coc(C)n3)c(OS(=O)(=O)c3ccc(-c4ccccc4)cc3)c3cc(Cl)ccc32)cc1 [Compound 89]
– | – | – | 400 nM | Cc1cncc(F)c1/C=C/C(=O)c1c(-c2cccnc2)c2cc(Cl)ccc2[nH]c1=O [Compound 16, 6-chloro-3-(3-(3-fluoro-5-methylpyridin-4-yl)acryloyl)-4-(pyridin-3-yl)quinolin-2(1H)-one]
– | 442 nM | 99% | – | COc1ccc(Cn2c(=O)c(-c3coc(C)n3)c(OS(=O)(=O)c3ccc(C)cc3)c3cc(Cl)ccc32)cc1 [Compound 83]
– | 670 nM | 99% | – | COc1ccc(Cn2c(=O)c(-c3coc(C)n3)c(OS(=O)(=O)c3ccc(Cl)cc3)c3cc(Cl)ccc32)cc1 [Compound 86]
– | – | – | 1180 nM | O=C(/C=C/c1c(F)cccc1Cl)c1c(-c2ccncc2)c2cc(Cl)ccc2[nH]c1=O [Compound 15, 6-chloro-3-(3-(2-chloro-6-fluorophenyl)acryloyl)-4-(pyridin-4-yl)quinolin-2(1H)-one]
– | – | – | 8600 nM | Cc1nc(-c2c(N3CCCCC3)c3cc(Cl)ccc3[nH]c2=O)co1 [Compound 21]
– | – | 99% | – | COc1ccc(OC)c(NCc2c(OC)ccc3ccccc23)c1 [Compound 143]
